The results in this text go back to PubChem BioAssay AID1259407 (Chemical Carcinogenesis Research Information System (CCRIS), 2018).

The source made the active and inactive calls. The rule behind the calls is not given here.

The data set relates to CCRIS mutagenicity, Ames/micronucleus/aberration tests. The experiment in a line: CCRIS mutagenicity studies.
Setting [1] is: Test System: AMES SALMONELLA TYPHIMURIUM, Strain/Indicator: TA98(1,8-DNP6), Metabolic Activation: NONE, Method: PREINCUBATION
Setting [2] is: Test System: AMES SALMONELLA TYPHIMURIUM, Strain/Indicator: TA98(1,8-DNP6), Metabolic Activation: RAT, LIVER, S-9, AROCLOR 1254, Method: PREINCUBATION
Setting [3] is: Test System: AMES SALMONELLA TYPHIMURIUM, Strain/Indicator: TA98(NR), Metabolic Activation: NONE, Method: PREINCUBATION
[4] abbreviates: Test System: AMES SALMONELLA TYPHIMURIUM, Strain/Indicator: TA98(NR), Metabolic Activation: RAT, LIVER, S-9, AROCLOR 1254, Method: PREINCUBATION
[5] abbreviates: Test System: AMES SALMONELLA TYPHIMURIUM, Strain/Indicator: TA98, Metabolic Activation: NONE, Method: PREINCUBATION
[6] abbreviates: Test System: AMES SALMONELLA TYPHIMURIUM, Strain/Indicator: TA98, Metabolic Activation: RAT, LIVER, S-9, AROCLOR 1254, Method: PREINCUBATION
Where [7] appears, read: Test System: AMES SALMONELLA TYPHIMURIUM, Strain/Indicator: TA100(NR), Metabolic Activation: NONE, Method: PREINCUBATION
The mark [8] stands for this setting: Test System: AMES SALMONELLA TYPHIMURIUM, Strain/Indicator: TA100(NR), Metabolic Activation: RAT, LIVER, S-9, AROCLOR 1254, Method: PREINCUBATION
[9] abbreviates: Test System: AMES SALMONELLA TYPHIMURIUM, Strain/Indicator: TA100, Metabolic Activation: NONE, Method: PREINCUBATION
Where [10] appears, read: Test System: AMES SALMONELLA TYPHIMURIUM, Strain/Indicator: TA100, Metabolic Activation: RAT, LIVER, S-9, AROCLOR 1254, Method: PREINCUBATION
Where [11] appears, read: Test System: AMES SALMONELLA TYPHIMURIUM, Strain/Indicator: TA98, Metabolic Activation: NONE, Method: STANDARD PLATE.
The mark [12] stands for this setting: Test System: AMES SALMONELLA TYPHIMURIUM, Strain/Indicator: TA100, Metabolic Activation: NONE, Method: STANDARD PLATE.

Turning to `CC(=O)Nc1ccc(Oc2ccc(N(OC(C)=O)C(C)=O)cc2)cc1`, the mutagenic call by setting is: under setting [1], “active; positive”; under setting [2], “active; positive”; under setting [3], “active; positive”; under setting [4], “active; positive”; under setting [5], “active; positive”; under setting [6], “active; positive”. Further, the mutagenic call was “active; positive” under setting [7], “active; positive” under setting [8], “active; positive” under setting [9] and “active; positive” under setting [10].
On to `COC(=O)COc1ccc(Cl)cc1Cl`, for which the mutagenic call is “inactive; negative” (Test System: AMES SALMONELLA TYPHIMURIUM, Strain/Indicator: TA97, Metabolic Activation: NONE, Method: STANDARD PLATE); “inactive; negative” (Test System: AMES SALMONELLA TYPHIMURIUM, Strain/Indicator: TA97, Metabolic Activation: RAT, LIVER, S-9, AROCLOR 1254, Method: STANDARD PLATE); “inactive; negative” under setting [11]; “inactive; negative” (Test System: AMES SALMONELLA TYPHIMURIUM, Strain/Indicator: TA98, Metabolic Activation: RAT, LIVER, S-9, AROCLOR 1254, Method: STANDARD PLATE); “inactive; negative” under setting [12]; “inactive; negative” (Test System: AMES SALMONELLA TYPHIMURIUM, Strain/Indicator: TA100, Metabolic Activation: RAT, LIVER, S-9, AROCLOR 1254, Method: STANDARD PLATE). For the same compound, the mutagenic call runs as follows: (Test System: AMES SALMONELLA TYPHIMURIUM, Strain/Indicator: TA102, Metabolic Activation: NONE, Method: STANDARD PLATE) “inactive; negative”; (Test System: AMES SALMONELLA TYPHIMURIUM, Strain/Indicator: TA102, Metabolic Activation: RAT, LIVER, S-9, AROCLOR 1254, Method: STANDARD PLATE) “inactive; negative”.
As for `CC(=O)Nc1ccc(Oc2ccc(N(O)C(C)=O)cc2)cc1`, the mutagenic call reads like this: under setting [1], “active; positive”; under setting [2], “active; positive”; under setting [3], “active; positive”; under setting [4], “active; positive”; under setting [5], “active; positive”; under setting [6], “active; positive”. For the same compound, the mutagenic call by setting is: under setting [7], “active; positive”; under setting [8], “active; positive”; under setting [9], “active; positive”; under setting [10], “active; positive”.
Take `CCn1c2ccccc2c2ccccc21`: the mutagenic call (Test System: UDS PRIMARY RAT HEPATOCYTES, Strain/Indicator: THY INCORP, Metabolic Activation: NONE, Method: AUTORADIOGRAPHY) is “active; positive”.
For the compound `Nc1ccc(N(c2ccc3ccccc3c2)c2ccc3ccccc3c2)cc1`, the mutagenic call runs as follows: under setting [11], “inactive; negative”; (Test System: AMES SALMONELLA TYPHIMURIUM, Strain/Indicator: TA98, Metabolic Activation: S-9, Method: STANDARD PLATE) “inactive; negative”; under setting [12], “inactive; negative”; (Test System: AMES SALMONELLA TYPHIMURIUM, Strain/Indicator: TA100, Metabolic Activation: S-9, Method: STANDARD PLATE) “inactive; negative”.
For `C/C=C1/C[C@@H](C)[C@@](C)(O)C(=O)OC/C2=C/CN(C)CC[C@@H](OC1=O)C2=O`, the mutagenic call (Test System: AMES SALMONELLA TYPHIMURIUM, Strain/Indicator: TA100, Metabolic Activation: HAMSTER, LIVER, S-9, PCB, Method: PREINCUBATION) was “active; positive”; the mutagenic call (Test System: AMES SALMONELLA TYPHIMURIUM, Strain/Indicator: TA100, Metabolic Activation: RAT, LIVER, S-9, PCB, Method: PREINCUBATION) is “active; positive”; the mutagenic call (Test System: UDS HAMSTER HEPATOCYTES, Strain/Indicator: THY INCORP, Metabolic Activation: NONE, Method: AUTORADIOGRAPHY) was “active; positive”; the mutagenic call (Test System: UDS MOUSE HEPATOCYTES, Strain/Indicator: THY INCORP, Metabolic Activation: NONE, Method: AUTORADIOGRAPHY) is “active; positive”; the mutagenic call (Test System: UDS RAT HEPATOCYTES, Strain/Indicator: THY INCORP, Metabolic Activation: NONE, Method: AUTORADIOGRAPHY) is “active; positive”.
In the case of `Cc1ccc2ccc3c4ccccc4ccc3c2c1`, the mutagenic call was “inactive; negative” (Test System: AMES SALMONELLA TYPHIMURIUM, Strain/Indicator: TA100, Metabolic Activation: RAT, LIVER, MICROSOMES, 3-METHYLCHRYSENE, Method: STANDARD PLATE); “active; positive” (Test System: AMES SALMONELLA TYPHIMURIUM, Strain/Indicator: TA100, Metabolic Activation: RAT, LIVER, MICROSOMES, AROCLOR 1254, Method: STANDARD PLATE); “inactive; negative” (Test System: AMES SALMONELLA TYPHIMURIUM, Strain/Indicator: TA100, Metabolic Activation: RAT, LIVER, MICROSOMES, Method: STANDARD PLATE).
